These results are taken from paper PMC4947907, “Lupin Peptides Modulate the Protein-Protein Interaction of PCSK9 with the Low Density Lipoprotein Receptor in HepG2 Cells” (Scientific Reports, 2016).

The subject of one series is PCSK9-LDLR interaction. To be noted: ref 23 (Zhang and coworkers); read-out: IC50, PCSK9-LDLR inhibition; cited from earlier work. The source says:
P5 is thus one of the shortest peptides ever described in literature endowed with this specific activity.

For the next series, the system named is Caco-2 cells. Description: Absorption in differentiated Caco-2 cells grown in two-compartment system; peptides identified/quantified in basolateral solution. It is filed as in vitro ADME, human. To be noted: Caco-2 AP to BL, 4 h. The source says: Lupin protein consumption provides some health benefits in the area of hypercholesterolemia prevention. Studies in animal models[31][32] and in the clinics[33][34] have shown that the protein itself is a main hypocholesterolemic agent. […] Another investigation in human Caco-2 cells has provided evidence that at least some of these peptic and tryptic peptides may be absorbed in the small intestine, since they are transferred from the apical (AP) to the basolateral (BL) compartment in differentiated Caco-2 cells grown in a two-compartment system.
Precisely, Caco-2 cells have been incubated for 4 h in the AP chamber with 500 μl of a 1.0 μg/μl solution of P-tot or T-tot peptides and, at the end of treatment, BL solutions (700 μl) have been collected and absorbed peptic and tryptic peptides identified by HPLC-Chip ESI-MS/MS[37]. The BL solutions were then dried and diluted to 100 μl to obtain the solutions P-abs and T-abs at the concentration of 0.25 and 0.32 μg/μl, respectively. Both solutions were used for the present experiments.
The peptic (P-tot) and tryptic (T-tot) hydrolyzates from lupin protein are the same used in a previous paper, in which their capability to modulate cholesterol metabolism in HepG2 cells was investigated. […]

Series [1] has as its target T1, PCSK9-LDLR interaction (recombinant His-tagged PCSK9 / recombinant LDLR-AB domain) (Homo sapiens, UniProt Q8NBP7).
T1 construct: purchased CycLex Co., Nagano, Japan
The experiment in a line: In vitro PCSK9-LDLR binding assay (solid-phase, CycLex). To be noted: synthetic peptide, absorbance 450 nm versus vehicle, average ± SEM of three independent experiments in duplicate.
Description: In vitro experiments were performed using a solid-phase binding assay between recombinant His-tagged PCSK9 and recombinant LDLR-AB domain.
The commercial assay provides a plate pre-coated with a recombinant LDLR-AB domain, which is the PCSK9 binding site. For screening direct inhibitors of the PCSK9-LDLR interaction, lupin peptides were added to the proper amount of His-tagged PCSK9 in each well coated with LDLR-AB domain. Biotinylated anti-His-tag monoclonal antibody specifically reacted with recombinant His-tagged PCSK9 trapped with LDLR-AB domain immobilized on the microplate surface. The inhibitory effects were analyzed measuring the amount of His-tagged PCSK9 on the well. In particular, the inhibitory effect, calculated as % PCSK9-LDLR binding inhibition, determines a reduction of absorbance measured at 450 nm using the Synergy H1 fluorescent plate reader from Biotek versus vehicle control. Data points represent averages ± SEM of three independent experiments in duplicate. ***p < 0.0001 **p < 0.001 versus C.
The employed assay provides a plate pre-coated with a recombinant LDLR-AB domain, which is the PCSK9 binding site. For screening, the peptides were added to proper amount of His-tagged PCSK9 in each well coated with LDLR-AB domain. Biotinylated anti-His-tag monoclonal antibody specifically reacts with recombinant His-tagged PCSK9 trapped with LDLR-AB domain immobilized on the microplate surface. […] Data points represent averages ± SEM of three independent experiments in duplicate. *p < 0.05 **P < 0.001 versus C.
P-tot peptides (1.0 and 2.5 μg/μl), T-tot peptides (0.5 and 1.0 μg/μl), P-abs (12.5 ng/μl) and T-abs peptides (16.0 ng/μl) were tested using the in vitro PCSK9-LDLR binding assay (CycLex Co., Nagano, Japan) following the manufacture instructions. […] The reaction was stopped with 2.0 N sulfuric acid and the absorbance at 450 nm was measured using the Synergy H1 fluorescent plate reader (Biotek, Bad Friedrichshall, Germany).
The absorbance at 450 nm was measured using the Synergy H1 fluorescent plate reader (Biotek, Bad Friedrichshall, Germany).

The target in series [2] is recombinant His-tagged PCSK9 wild type (proprotein convertase subtilisin/kexin type 9) (human, UniProt Q8NBP7 153-692, Limits of the kit protein are not printed. Taken as secreted, autocleaved PCSK9: prodomain 31-152 non-covalently bound to mature chain 153-692, from UniProt features. His tag omitted.). The experiment in a line: ELISA; CycLex in vitro PCSK9-LDLR binding assay: plate pre-coated with LDLR-AB domain; His-tagged PCSK9 added with vehicle or synthetic peptides T9 (32-320 uM) or P5 (0.001-100 uM), 2 h at room temperature; bound PCSK9 detected with biotinylated anti-His-tag antibody, absorbance at 450 nm. To be noted: both partners purified.
Sequence of recombinant His-tagged PCSK9 wild type (proprotein convertase subtilisin/kexin type 9) (Q8NBP7 153-692): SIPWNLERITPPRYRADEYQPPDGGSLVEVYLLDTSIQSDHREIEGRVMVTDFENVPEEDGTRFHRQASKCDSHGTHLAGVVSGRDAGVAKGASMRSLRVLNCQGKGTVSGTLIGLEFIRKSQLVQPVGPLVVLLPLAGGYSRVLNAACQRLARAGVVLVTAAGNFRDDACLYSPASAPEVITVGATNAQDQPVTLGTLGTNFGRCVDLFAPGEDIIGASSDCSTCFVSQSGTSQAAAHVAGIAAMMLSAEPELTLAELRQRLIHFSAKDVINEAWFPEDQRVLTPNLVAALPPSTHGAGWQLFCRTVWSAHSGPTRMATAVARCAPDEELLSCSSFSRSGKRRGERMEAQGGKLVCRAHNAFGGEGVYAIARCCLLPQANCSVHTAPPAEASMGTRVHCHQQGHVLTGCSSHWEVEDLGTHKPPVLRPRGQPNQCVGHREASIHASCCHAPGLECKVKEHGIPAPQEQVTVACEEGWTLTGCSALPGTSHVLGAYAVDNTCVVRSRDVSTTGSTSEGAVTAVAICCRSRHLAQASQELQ

No end group written: not given here.

T1 sequence (Q8NBP7 153-692): as above
T1 sequence (Q8NBP7 31-152 partner limits assumed): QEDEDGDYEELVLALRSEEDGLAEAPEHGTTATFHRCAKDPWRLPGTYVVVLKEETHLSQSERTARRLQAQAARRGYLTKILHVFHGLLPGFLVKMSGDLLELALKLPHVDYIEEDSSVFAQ

One may read the IC50 as the concentration that inhibits the measured activity by half. For the molecule Ac-TVFTSWEEYLDWV-amide [Pep2-8], the IC50 in the series with PCSK9-LDLR interaction was 0.81 ± 0.08 µM.
For LILPKHSDAD [Peptide P5], the “P5 concentration in the P-abs solution” value in the series on Caco-2 cells (AP 500 μl of 1.0 μg/μl P-tot, BL solution (700 μl) dried and diluted to 100 μl, HPLC-MS/MS m/z 554.8 → 770.0, external calibration with synthetic standard, three injections) was 28.64 ± 0.43 ng/µL. For the same molecule, the “P5 share of total peptic peptides absorbed by Caco-2 cells” value in the series on Caco-2 cells (P-abs sample, HPLC-MS/MS) is on record as 11.5%.
In general, inhibition refers to the change of the read-out against control, counted positive when it falls. With `CC[C@H](C)[C@H](NC(=O)[C@@H](NC(=O)CNC(=O)[C@H](CCC(=O)O)NC(=O)[C@H](CC(=O)O)NC(=O)[C@H](CCC(N)=O)NC(=O)[C@H](Cc1c[nH]cn1)NC(=O)[C@H](CO)NC(=O)[C@H](CCC(N)=O)NC(=O)[C@H](CCC(=O)O)NC(=O)[C@H](CCC(N)=O)NC(=O)CN)C(C)C)C(=O)N[C@H](C(=O)N[C@@H](CCCNC(=N)N)C(=O)O)C(C)C` [Peptide T9], the inhibition at 32 µM in series [1] (32 μM) was 19 ± 8.47%. For the same molecule, the inhibition at 160 µM in series [1] (160 μM) stood at 33 ± 5.33%. For the same molecule, the inhibition at 320 µM in series [1] ([…] μM) was found to be 53 ± 1.02%.

B1: P5 (peptide)
peptide: LILPKHSDAD
notes: peptic peptide of Lupinus albus β2-conglutin (beta-conglutin precursor); source: synthetic peptide (PRIMM, Milan), >95% pure by HPLC
As to B1, in series [2], the 50% inhibitory concentration (IC50) stood at 1.6 µM.
